From patent US5348956A, “Substituted cyclopropylamino-1,3,5-triazines” (UCB S.A., priority 1991, dated 1994)

What was measured:
[1] = multiple-trial passive avoidance: learning; assay type: in vivo, male Sprague-Dawley rats
Procedure: To evaluate whether a compound can promote learning, the following test is carried out. […] Rats which remain on the mat for this period have acquired the avoidance reflex and are replaced in their original cage without receiving the electric shock. […] The results obtained in the test used to evaluate learning are given in columns 3 and 4. […] The results were analyzed by the Student test.

serotonergic activity = test: "wet dog shake" (WDS) behavior, serotonergic activity; assay type: in vivo, male Sprague-Dawley rats; conditions: counted over 30 minutes
Procedure: A decrease in serotonergic activity has been correlated with the occurrence of affective disorders, such as depression and anxiety. […] The test is carried out in the morning on male Sprague-Dawley rats (±180 g), divided the previous day into groups of 8 animals in residence cages. The cage used for the tests is a transparent enclosure of 12×24×30 cm in height, the floor of which is covered with a layer of sand. The compounds to be tested, dissolved either in physiological salt solution or in a citrate buffer of pH 5, are administered intraperitoneally in a different dose for each group treated. The control groups receive an intraperitoneal injection of the same vehicle (either physiological salt solution or citrate buffer). […] The mean values of the results are calculated and analyzed statistically by the Mann-Whitney method. The mean values of the number of shakes obtained for the compounds according to the invention administered intraperitoneally at the doses indicated (in mg/kg) are given in Table V below.

[2] = tested on: anaphylactic release of histamine, guinea-pig lung sections; test: potentiation of the inhibition of anaphylactic histamine release by isoprenaline; assay type: cell-based, Dunkin-Hartley guinea-pigs; conditions: with isoprenaline 10^-7 mole per liter
[3] = tested on: longitudinal muscles of the ileum contracted by histamine; test: potentiation of the myorelaxing effect of isoprenaline on the ileum; assay type: cell-based, Dunkin-Hartley guinea-pigs; conditions: with isoprenaline 10^-7 mole/l; histamine 3.2 μmoles/l
Procedure, shortened: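 Isolated ileal longitudinal muscle contracted by repeated histamine injections; test compound injected after wash, and the next histamine contraction compared with the mean of three preceding control contractions to give % inhibition. Potentiation cycle: % inhibition by compound alone at a given dose, then with isoprenaline co-injected, repeated per dose.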

cAMP in PMN granulocytes = test: increase in the level of cAMP in PMN granulocytes; assay type: cell-based, Rat; conditions: […]10^-6 mole per liter; PGE1 10^-6 mole/liter; control 4.3
Text: Polymorphonuclear neutrophil granulocytes (PMN) are cells which are mobilized during inflammatory phenomena and which can be stimulated by various compounds, such as, for example, formylmethionyl-leucylphenylalanine (FMLP) or prostaglandins E (PGE1). The PMN granulocytes respond to these extracellular stimuli with an activation of the oxygen metabolism with release of toxic oxygenated metabolites. An excessive response of the PMN granulocytes may be the cause of a painful inflammation and is also accompanied by a reduction in the level of cyclic adenosine monophosphate (cAMP) in these granulocytes. […] The reaction is then stopped by addition of 1 ml of propanol. After centrifugation at 15,000 g for 3 minutes, the supernatant is recovered and evaporated and the amount of cAMP in the residue is determined by radioimmunological assay according to the process recommended by the supplier of the reagent used for this purpose (Amersham). A control test is carried out under the same conditions, but in the absence of the compound to be tested.

[4] = tested on: amnesia induced by scopolamine; test: multiple-trial passive avoidance: mnemic retention, amnesia induced by scopolamine
Procedure: To this end, the method of multiple-trial passive avoidance has been used. […] The test is carried out on male Sprague-Dawley rats (160-200 g). which are kept in standard cages throughout the experiment. The apparatus used is a transparent square cage with 35 cm sides and 25 cm high, fitted with a grid floor which can be electrified. A rubber insulating mat (10×17 cm) is placed on the floor in one of the corners of the cage.
Each animal is subjected to four tests at times 0, 4, 24 and 28 hours. In the first test (time 0), the animal is placed on the rubber mat and the time which it takes to decide to leave this position to explore the cage is recorded. After 20 seconds of exploration, the rat receives an electric shock (3 seconds duration) in the paws, causing an escape reaction. The rat is immediately removed from the apparatus and replaced in its original cage. In the course of the three subsequent tests (times: 4, 24 and 28 hours), the animal is replaced on the rubber mat and the time taken to leave this position is recorded. As soon as the four paws of the animal rest on the grid, it receives an electric shock and is removed immediately from the apparatus.
At the start of the experiment, the rats are divided into 4 homogeneous groups of 15 animals. Thirty minutes before each test, each group of animals is subjected to a predetermined treatment:
Groups 1 and 2 are used in the first experiment (learning) and groups 3 and 4 in the second experiment (mnemic retention).
The differences found are analyzed statistically by the Mann-Whitney method.

[5] = 4 hours, 2.8 mg/kg i.p. + 0.5 mg scopolamine
[6] = 24 hours, 2.8 mg/kg i.p. + 0.5 mg scopolamine
[7] = 28 hours, 2.8 mg/kg i.p. + 0.5 mg scopolamine
[8] = time 0, 2.8 mg/kg i.p. + 0.5 mg scopolamine

SMILES	Learning, average number of trials, group 2 ([1]; 2.8 mg/kg i.p.) [trials]	Average number of shakes (serotonergic activity; 2.8 mg/kg i.p.) [shakes]	Minimum potentiating dose (MPD) [2] [µmol/L]	Minimum potentiating dose (MPD) [3] [µmol/L]	Amount of cAMP produced (cAMP in PMN granulocytes) [picomoles per 10^7 cells]	Period of remaining on the mat, group 4 [4, 5] [s]	Period of remaining on the mat, group 4 [4, 6] [s]	Period of remaining on the mat, group 4 [4, 7] [s]	Period of remaining on the mat, group 4 [4, 8] [s]	Learning, average number of trials, group 2 ([1]; 3.3 mg/kg i.p.) [trials]	Average number of shakes (serotonergic activity; 1.1 mg/kg i.p.) [shakes]	Period of remaining on the mat, group 4 ([4]; 4 hours, 3.3 mg/kg i.p. + 0.5 mg scopolamine) [s]	Period of remaining on the mat, group 4 ([4]; 24 hours, 3.3 mg/kg i.p. + 0.5 mg scopolamine) [s]	Period of remaining on the mat, group 4 ([4]; 28 hours, 3.3 mg/kg i.p. + 0.5 mg scopolamine) [s]	Period of remaining on the mat, group 4 ([4]; time 0, 3.3 mg/kg i.p. + 0.5 mg scopolamine) [s]
CCCc1nc(NC2CC2)nc(N2CCC(O)CC2)n1 [Compound 5]	2.3	8.4 ± 1.6	3.2	1.0	11.6	34.2	35.9	73.3	14.5	–	–	–	–	–	–
OCCN(CCO)c1nc(NC2CC2)nc(C2CC2)n1 [Compound 7]	1.9	7.9 ± 1.8	1.0	0.32	15.8	34.5	94.0	133.0	9.8	–	–	–	–	–	–
CCCc1nc(NC2CC2)nc(N2CC3CCC(C2)O3)n1 [Compound 11]	–	–	0.32	0.032	16.2	–	–	–	–	1.8	4.3 ± 1.4	21.4	58.6	93.2	10.7
